Results on 2 compounds are retold here after US20110288045A1, “WET GRANULATION OF TENOFOVIR, EMTRICITABINE AND EFAVIRENZ” (ULTIMORPHIX TECHNOLOGIES B.V., priority 2008, published 2011).

“Also recorded” adds a separate entry of the source. Structures can show the parent of a compound that is named as a salt. Where two headings read alike, the source gives them in different places.

Data set [1] is described as follows: Stability testing at 33 weeks of wet granulated Truvada and Atripla combination formulations, by HPLC. It counts as physicochemical. As for the experimental part: Stability Testing at 33 Weeks
The stability of the Truvada and Atripla combination formulations after wet granulation was checked by HPLC after 33 weeks storage under 75% Relative Humidity (RH) and 40° C.
Two types of formulations were prepared for each combination, one containing the Tenofovir Disoproxil Fumarate and the other one containing the Tenofovir Disoproxil Hemifumarate co-crystal. In both combinations, water content of 30 and 40% was prepared.

The conditions of data set [2]: wet granulation of the three drugs (Efavirenz, Tenofovir DF, Emtricitabine) together; US2007099902A1, EP1890681; cited from earlier work.
Data set [3] is described as follows: HPLC assay for degradation products after wet granulation. In kind it is physicochemical. Particulars: for Impurity peaks of Tenofovir disoproxil at 26.57 and 36.0 min (HPLC): wet granulation with Emtricitabine (Table 1). On the procedure:
Analytical Methods: HPLC Assay for Degradation Product
Emtricitabine/Tenofovir disoproxil (Fumarate or Hemifumarate) granules are assayed by HPLC for Emtricitabine and Tenofovir disoproxil (Fumarate or Hemifumarate) using external references as described in US2007/0077295. The presence of degradation products are determined by area normalization. The identities of Emtricitabine and Tenofovir disoproxil (Fumarate or Hemifumarate) are confirmed by comparison of their retention times with those of the reference standards.
Approximately 6520 mg of Emtricitabine/Tenofovir disoproxil (Fumarate or Hemifumarate) granules was weighted into a 1 L volumetric flask. Added was 400 mL 25 mM phosphate buffer, pH 3 to the volumetric flask. Mixing was performed by stirring vigorously for about 75 minutes. 50:50 acetonitrile: methanol was added to the flask to approximately 2 cm below the 1 L mark. The solution was equilibrated to ambient temperature by mixing for 1 hour. The volume was diluted to 1 L with 50:50 acetonitrile: methanol and mixed well by stirring with a magnetic stirring bar. Using a 0.45 μm syringe filter with a syringe, approximately 10 mL for the next dilution was filtered. The first 2 mL of the filtrate was discarded. A class A pipette was used to transfer 5.0 mL of the filtrate into a 50 mL volumetric flask and dilute the to volume with sample solvent (40:30:30). […]
A composition comprising the ingredients and ratios as listed in table 1 are subjected to a standard wet granulation process with respectively 30% and 40% w/w water. The quality of the granulation was assessed visually. […]
A composition comprising the ingredients and ratios as listed in table 2 were subjected to a standard wet granulation process with respectively 30% and 40% w/w water. The quality of the granulation was assessed visually. […]
A composition comprising the ingredients and ratios as listed in Table 1 are subjected to a standard wet granulation process with respectively 30% and 40% w/w water. The quality of the granulation was assessed visually. […]

Consider `CC(C)OC(=O)OCOP(=O)(CO[C@H](C)Cn1cnc2c(N)ncnc21)OCOC(=O)OC(C)C` [Tenofovir disoproxil fumarate], for which the “Degradation of Tenofovir disoproxil salt (HPLC chromatogram)” value in data set [1] is “to a large extent”. Moreover, the “Stability of Tenofovir DF” value in data set [2] is “degraded rapidly; also recorded: unstable”.

As for Tenofovir disoproxil hemifumarate, the “Chemical stability during wet granulation (overall conclusion)” value in data set [3] (Truvada (table 1) and Atripla (table 2) formulations, 30% and 40% w/w water) was “stable”. Moreover, the “Impurity peaks of Tenofovir disoproxil at 26.57 and 36.0 min (HPLC)” value in data set [3] (30% w/w high pure water) and in data set [3] (40% w/w high pure water) was “not observed” throughout. Moreover, the “Degradation of Tenofovir disoproxil salt (HPLC chromatogram)” value in data set [1] (Atripla sample prepared with 30% water, 33 weeks, 75% RH, 40° C.) is listed as “no degradation”; in data set [1] (Atripla sample prepared with 40% water, 33 weeks, 75% RH, 40° C.) it was “less degradation”; in data set [1] (Truvada sample prepared with 30% water, 33 weeks, 75% RH, 40° C.), “small degradation”; in data set [1] (Truvada sample prepared with 40% water, 33 weeks, 75% RH, 40° C.) it was “small degradation”.
